Tests used:
Desulfovibrio vulgaris = test: Log10 reduction of viable anaerobic bacteria in high-TDS buffer after biocide contact; format: cell-based; conditions: TDS 30,000 mg l^-1, pH 8 phosphate buffer, room temperature, versus control, ppm active per example, 5 = complete kill
Description: (§1) Aqueous systems inoculated with anaerobe and facultative anaerobe culture and having a total dissolved solids (TDS) concentration of 30,000 mg l^−1 were prepared and treated with treatment agents comprising: (a) a phosphonium compound and (b) a quaternary ammonium salt. The phosphonium compound (a) used was tri n-butyl n-tetradecyl phosphonium chloride (TTPC). The quaternary ammonium salt (b) used was 1-(3-chloroallyl)-3,5,7-triaza-1-azoniaadamantane chloride (CTAC).
(§2) A suspension of Desulfovibrio vulgaris plus Enterobacter aerogenes bacteria containing from 1×10^5 to 1×10^6 cells/mL was prepared in sterile pH 8 phosphate buffer containing sodium chloride to give the desired total dissolved solids (TDS) concentration. Aliquots of this suspension were dosed with the indicated concentrations of the compounds (a) and (b) with the concentrations being measured as ppm active by weight. The mixtures were allowed to stand at room temperature. At the designated contact times, each mixture was sampled to determine the total number of viable cells of both Desulfovibrio vulgaris and Enterobacter aerogenes by serial 10-fold dilution into API RP 38 media vials and anaerobic acid producing media vials, respectively. The vials were incubated at 37° C. for 72 hours. Results were recorded as log10 reduction in the viable count versus the control.
(§3) The efficacy of the treatment agents was evaluated by measuring the Log10 Reduction of the anaerobic bacterium Desulfovibrio vulgaris and the facultative anaerobic bacterium Enterobacter aerogenes after contact times of 1 hour, 4 hours, 24 hours and 48 hours as detailed in Table 1. For TTPC the stated ppm value relates to the amount of TTPC added (active). For the CTAC the stated ppm relates to the amount of CTAC added (active).

Enterobacter aerogenes = test: Log10 reduction of viable facultative anaerobic bacteria in high-TDS buffer after biocide contact; format: cell-based; conditions: TDS 30,000 mg l^-1, pH 8 phosphate buffer, room temperature, versus control, ppm active per example, 8 = complete kill
Description: as §1, §2, §3

## CCCCCCCCCCCCCC[P+](CCCC)(CCCC)CCCC.[Cl-] [Example 1, tri n-butyl n-tetradecyl phosphonium chloride]
Desulfovibrio vulgaris; contact time 1 hour
  Log10 Reduction Anaerobes: 2
Enterobacter aerogenes; contact time 1 hour
  Log10 Reduction Facultative Anaerobes: 1

## CCCCCCCCCCCCCC[P+](CCCC)(CCCC)CCCC.[Cl-] [Example 2, tri n-butyl n-tetradecyl phosphonium chloride]
Desulfovibrio vulgaris; contact time 1 hour
  Log10 Reduction Anaerobes: 3
Enterobacter aerogenes; contact time 1 hour
  Log10 Reduction Facultative Anaerobes: 3

## ClC=CC[N+]12CN3CN(CN(C3)C1)C2.[Cl-] [Example 4, 1-(3-chloroallyl)-3,5,7-triaza-1-azoniaadamantane chloride]
Desulfovibrio vulgaris; contact time 1 hour
  Log10 Reduction Anaerobes: 0
Enterobacter aerogenes; contact time 1 hour
  Log10 Reduction Facultative Anaerobes: 0

## CCCCCCCCCCCCCC[P+](CCCC)(CCCC)CCCC.[Cl-] [Example 9, tri n-butyl n-tetradecyl phosphonium chloride]
Desulfovibrio vulgaris; contact time 4 hours
  Log10 Reduction Anaerobes: 5
Enterobacter aerogenes; contact time 4 hours
  Log10 Reduction Facultative Anaerobes: 2

## CCCCCCCCCCCCCC[P+](CCCC)(CCCC)CCCC.[Cl-] [Example 10, tri n-butyl n-tetradecyl phosphonium chloride]
Desulfovibrio vulgaris; contact time 4 hours
  Log10 Reduction Anaerobes: 5
Enterobacter aerogenes; contact time 4 hours
  Log10 Reduction Facultative Anaerobes: 8

## ClC=CC[N+]12CN3CN(CN(C3)C1)C2.[Cl-] [Example 11, 1-(3-chloroallyl)-3,5,7-triaza-1-azoniaadamantane chloride]
Desulfovibrio vulgaris; contact time 4 hours
  Log10 Reduction Anaerobes: 0
Enterobacter aerogenes; contact time 4 hours
  Log10 Reduction Facultative Anaerobes: 0

## ClC=CC[N+]12CN3CN(CN(C3)C1)C2.[Cl-] [Example 12, 1-(3-chloroallyl)-3,5,7-triaza-1-azoniaadamantane chloride]
Desulfovibrio vulgaris; contact time 4 hours
  Log10 Reduction Anaerobes: 0
Enterobacter aerogenes; contact time 4 hours
  Log10 Reduction Facultative Anaerobes: 1

## CCCCCCCCCCCCCC[P+](CCCC)(CCCC)CCCC.[Cl-] [Example 17, tri n-butyl n-tetradecyl phosphonium chloride]
Desulfovibrio vulgaris; contact time 24 hours
  Log10 Reduction Anaerobes: 5
Enterobacter aerogenes; contact time 24 hours
  Log10 Reduction Facultative Anaerobes: 4

## CCCCCCCCCCCCCC[P+](CCCC)(CCCC)CCCC.[Cl-] [Example 18, tri n-butyl n-tetradecyl phosphonium chloride]
Desulfovibrio vulgaris; contact time 24 hours
  Log10 Reduction Anaerobes: 5
Enterobacter aerogenes; contact time 24 hours
  Log10 Reduction Facultative Anaerobes: 7

## ClC=CC[N+]12CN3CN(CN(C3)C1)C2.[Cl-] [Example 19, 1-(3-chloroallyl)-3,5,7-triaza-1-azoniaadamantane chloride]
Desulfovibrio vulgaris; contact time 24 hours
  Log10 Reduction Anaerobes: 1
Enterobacter aerogenes; contact time 24 hours
  Log10 Reduction Facultative Anaerobes: 0

## ClC=CC[N+]12CN3CN(CN(C3)C1)C2.[Cl-] [Example 20, 1-(3-chloroallyl)-3,5,7-triaza-1-azoniaadamantane chloride]
Desulfovibrio vulgaris; contact time 24 hours
  Log10 Reduction Anaerobes: 3
Enterobacter aerogenes; contact time 24 hours
  Log10 Reduction Facultative Anaerobes: 2

## CCCCCCCCCCCCCC[P+](CCCC)(CCCC)CCCC.[Cl-] [Example 25, tri n-butyl n-tetradecyl phosphonium chloride]
Desulfovibrio vulgaris; contact time 48 hours
  Log10 Reduction Anaerobes: 5
Enterobacter aerogenes; contact time 48 hours
  Log10 Reduction Facultative Anaerobes: 6

## ClC=CC[N+]12CN3CN(CN(C3)C1)C2.[Cl-] [Example 27, 1-(3-chloroallyl)-3,5,7-triaza-1-azoniaadamantane chloride]
Desulfovibrio vulgaris; contact time 48 hours
  Log10 Reduction Anaerobes: 5
Enterobacter aerogenes; contact time 48 hours
  Log10 Reduction Facultative Anaerobes: 2

## ClC=CC[N+]12CN3CN(CN(C3)C1)C2.[Cl-] [Example 28, 1-(3-chloroallyl)-3,5,7-triaza-1-azoniaadamantane chloride]
Desulfovibrio vulgaris; contact time 48 hours
  Log10 Reduction Anaerobes: 5
Enterobacter aerogenes; contact time 48 hours
  Log10 Reduction Facultative Anaerobes: 3

Source: patent US20170094976A1, “TREATMENT OF WATER” (BWA WATER ADDITIVES UK LIMITED, priority 2015, published 2017)
